Test results taken from patent publication US20200237766A1, “PKM2 ACTIVATORS IN COMBINATION WITH REACTIVE OXYGEN SPECIES FOR TREATMENT OF CANCER” (TOLERO PHARMACEUTICALS, INC., priority 2017, published 2020).
Like-named read-outs stand apart in the source and are kept apart here.

Biological target: PKM2 (Homo sapiens, UniProt P14618)
Assay: PKM2 activation biochemical assay (AC50 / max. response vs fructose 1,6-bisphosphate)
Conditions: for Max. Resp. (%): % maximum response in a biochemical assay as compared with Fructose 1,6-bisphosphate
[1] = biochemical assay, read-out: PKM2 AC50

Chain of PKM2 (P14618 whole entry): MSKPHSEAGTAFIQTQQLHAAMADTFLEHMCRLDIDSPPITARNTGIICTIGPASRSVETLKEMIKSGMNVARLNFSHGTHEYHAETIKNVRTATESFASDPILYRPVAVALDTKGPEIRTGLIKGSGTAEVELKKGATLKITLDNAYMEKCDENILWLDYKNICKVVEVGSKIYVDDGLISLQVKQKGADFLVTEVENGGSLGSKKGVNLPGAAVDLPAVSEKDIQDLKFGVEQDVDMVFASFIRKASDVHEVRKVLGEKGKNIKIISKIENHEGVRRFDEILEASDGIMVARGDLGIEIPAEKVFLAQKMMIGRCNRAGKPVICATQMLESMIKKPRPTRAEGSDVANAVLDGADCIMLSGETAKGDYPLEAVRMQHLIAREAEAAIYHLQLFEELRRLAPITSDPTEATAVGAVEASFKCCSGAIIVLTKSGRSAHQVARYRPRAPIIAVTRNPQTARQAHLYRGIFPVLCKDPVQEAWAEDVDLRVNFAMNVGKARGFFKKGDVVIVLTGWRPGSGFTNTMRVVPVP

| Structure (SMILES) | AC50 [nM] | Max. Resp. (%) | AC50 [1] [nM] |
| --- | --- | --- | --- |
| CN1CCN(CCN(Cc2ccccc2F)C(=O)c2cc(C(F)(F)F)n[nH]2)CC1 [Compound 103] | 37000 | 42 | – |
| CN1CCN(CCN(Cc2ccccc2Cl)C(=O)c2cc(C(F)(F)F)n[nH]2)CC1 [Compound 104] | – | 63 | 17000 |
| CCN1CCC(CCN(Cc2c(Cl)cccc2Cl)C(=O)c2cc(C(F)(F)F)n[nH]2)CC1 [Compound 105] | – | 71 | 3270 |
| CCN1CCN(CCN(Cc2ccccc2F)C(=O)c2cc(C(F)(F)F)n[nH]2)CC1 [Compound 106] | – | 115 | 6300 |
| O=C(c1cc(C(F)(F)F)n[nH]1)N(CCN1CCS(=O)(=O)CC1)Cc1ccccc1Cl [Compound 107] | – | 85 | 873 |
| O=C(c1cc(C(F)(F)F)n[nH]1)N(CCN1CCS(=O)(=O)CC1)Cc1ccccc1F [Compound 108] | 7800 | 92 | – |
| O=C(c1cc(C(F)(F)F)n[nH]1)N(CCN1CCS(=O)(=O)CC1)Cc1c(F)cccc1F [Compound 109] | – | 94 | 4200 |
| O=C(c1cc(C(F)(F)F)n[nH]1)N(CCN1CCS(=O)(=O)CC1)Cc1c(Cl)cccc1Cl [Compound 110] | – | 84 | 1640 |
| O=C(c1cc(C(F)(F)F)n[nH]1)N(CCN1CCS(=O)(=O)CC1)Cc1cccc(F)c1F [Compound 111] | – | 64 | 13100 |
| Nc1cccc(CN(CCN2CCS(=O)(=O)CC2)C(=O)c2cc(C(F)(F)F)n[nH]2)c1 [Compound 112] | – | 91 | 1070 |
| CC[C@](C)(N)C(=O)Oc1ccc(CN(CC2CCC2)C(=O)c2cc(Cl)n[nH]2)c(F)c1 [Compound 115] | – | 104 | 98 |
| O=C(c1cc(Cl)n[nH]1)N(Cc1ccncc1F)CC1CCC1 [Compound 116] | – | – | 38000 |
| CN(C)Cc1c[nH]c2cccc(CN(CC3CCC3)C(=O)c3cc(Cl)n[nH]3)c12 [Compound 118] | – | 100 | 7000 |
| O=C(c1cc(Cl)n[nH]1)N(Cc1cccc2[nH]cnc12)CC1CCC1 [Compound 119] | – | 100 | 2930 |
| O=C(c1cc(Br)n[nH]1)N(Cc1cccc2[nH]cnc12)CC1CCC1 [Compound 120] | – | 100 | – |
| CNCc1c[nH]c2cccc(CN(CC3CCC3)C(=O)c3cc(Br)n[nH]3)c12 [Compound 121] | 23000 | – | – |
| O=C(c1cc(C(F)(F)F)n[nH]1)N(Cc1cccc2[nH]cnc12)CC1CCC1 [Compound 123] | 828 | 100 | – |
| O=C(c1cc(C(F)(F)F)n[nH]1)N(Cc1ccc(O)cc1Cl)CC1CCC1 [Compound 124] | – | 100 | 21 |
| O=C(c1cc(Br)n[nH]1)N(Cc1ccc(O)cc1Cl)CC1CCC1 [Compound 125] | – | 100 | 35 |
| O=C(c1cc(C(F)(F)F)n[nH]1)N(Cc1ccccc1Cl)CC1CCC1 [Compound 127] | 258 | 100 | – |
| O=C(c1cc(C(F)(F)F)n[nH]1)N(Cc1ccncc1Cl)CC1CCC1 [Compound 128] | – | 75 | 9300 |
| O=C(c1cc(C2CC2)n[nH]1)N(CCC(F)(F)F)Cc1ccc(O)cc1F [Compound 129] | 10500 | – | – |
| O=C(c1cc(C(F)(F)F)n[nH]1)N(CCC(F)(F)F)Cc1ccc(O)cc1F [Compound 130] | – | 100 | 1000 |
| O=C(c1cc(C(F)(F)F)n[nH]1)N(Cc1ccc(O)cc1F)C1CCCC1 [Compound 132] | – | 100 | 213 |
| NCCN(Cc1ccc(O)cc1F)C(=O)c1cc(C(F)(F)F)n[nH]1 [Compound 133] | – | 100 | 1270 |

| Structure (SMILES) | AC50 [nM] | Max. Resp. (%) | AC50 [1] [nM] |
| --- | --- | --- | --- |
| Nc1ccc(CN(CC2CCC2)C(=O)c2cc(C(F)(F)F)n[nH]2)c(Cl)c1 [Compound 134] | – | 100 | 1080 |
| O=C(c1cc(C(F)(F)F)n[nH]1)N(Cc1cccc2[nH]ccc12)NC1CCC1 [Compound 135] | – | 100 | 68 |
| O=C(c1cc(C(F)(F)F)n[nH]1)N(Cc1cccc(F)c1O)CC1CCC1 [Compound 136] | – | 100 | 380 |
| O=C(c1cc(C(F)(F)F)n[nH]1)N(CCO)Cc1ccc(O)cc1F [Compound 137] | – | 70 | 6200 |
| O=C(c1cc(C(F)(F)F)n[nH]1)N(Cc1ccc(O)cc1F)C1CCCCC1 [Compound 139] | – | 100 | 152 |
| O=C(c1cc(C(F)(F)F)n[nH]1)N(CCC1CC1)Cc1ccc(O)cc1F [Compound 140] | – | 100 | 32 |
| O=C(c1cc(C(F)(F)F)n[nH]1)N(Cc1cccc(Cl)c1O)CC1CCC1 [Compound 141] | – | 100 | 6500 |
| COCCN(Cc1ccc(O)cc1F)C(=O)c1cc(C(F)(F)F)n[nH]1 [Compound 142] | – | 100 | 1190 |
| CCN(CC)CCN(Cc1ccc(O)cc1F)C(=O)c1cc(C(F)(F)F)n[nH]1 [Compound 143] | – | 100 | 108 |
| O=C(c1cc(C(F)(F)F)n[nH]1)N(Cc1cn[nH]c1)Cc1cccc2[nH]cnc12 [Compound 144] | – | – | 25000 |
| NCc1ccccc1CN(CC1CCC1)C(=O)c1cc(C(F)(F)F)n[nH]1 [Compound 145] | – | – | 25500 |
| CCN(CC)CCN(Cc1ccccc1F)C(=O)c1cc(C(F)(F)F)n[nH]1 [Compound 148] | 505 | 100 | – |
| O=C(c1cc(C(F)(F)F)n[nH]1)N(CCC1CC1)Cc1ccccc1F [Compound 149] | – | 100 | 2000 |
| O=C(c1cc(C(F)(F)F)n[nH]1)N(Cc1ccccc1F)CC1CCOC1 (centres unmarked) [Compound 150] | – | 68 | 16000 |
| CCN1CCC(N(Cc2ccccc2F)C(=O)c2cc(C(F)(F)F)n[nH]2)C1 (centres unmarked) [Compound 152] | – | 68 | 13500 |
| O=C(c1cc(C(F)(F)F)n[nH]1)N(Cc1ccccc1F)C1CCCCC1 [Compound 153] | – | 57 | 19000 |
| CCN(CC)CCN(Cc1cccc(N)c1)C(=O)c1cc(C(F)(F)F)n[nH]1 [Compound 154] | – | 100 | 1430 |
| CCNCCN(Cc1ccccc1F)C(=O)c1cc(C(F)(F)F)n[nH]1 [Compound 155] | – | 100 | 2150 |
| O=C(c1cc(C(F)(F)F)n[nH]1)N(CCN1CCCC1)Cc1ccccc1F [Compound 158] | – | 100 | 265 |
| CCN(CC)CCN(Cc1ccccc1Cl)C(=O)c1cc(C(F)(F)F)n[nH]1 [Compound 159] | – | 100 | 73 |
| CCN(CC)CCN(Cc1cccc2[nH]cnc12)C(=O)c1cc(C(F)(F)F)n[nH]1 [Compound 160] | – | 100 | 825 |
| CCN(CC)CCN(Cc1cccc2[nH]ccc12)C(=O)c1cc(C(F)(F)F)n[nH]1 [Compound 161] | – | 100 | 76 |
| O=C(c1cc(C(F)(F)F)n[nH]1)N(CCN1CCCC1)Cc1ccccc1Cl [Compound 162] | 107 | 100 | – |
| O=C(c1cc(C(F)(F)F)n[nH]1)N(CCN1CCCC1)Cc1cccc2nc[nH]c12 [Compound 163] | – | 100 | 1080 |
